Key:
[1] = tested on: Bcl2; assay: Western blot analysis of Bcl2; format: cell-based, human; settings: AS101 added to ARA-C
Source text: The expression of the survival factor Bcl2 was examined via Western blot analysis in U937 cells treated with the chemotherapeutic agent ARA-C.

[2] = tested on: C57B1/6N female mice; assay: Mouse plug in vivo migration and angiogenesis assay; settings: 20 μg/mouse s.c. daily, 10 days, ECGS 500 μg/ml in Matrigel
Procedure: Matrigel was mixed with ECGS (500 μg/ml) and injected subcutaneously into C57B1/6N female mice on the ventral surface of the animal. During 10 days, every day, AS101 or SAS (20 μg/mouse in Matrigel) were injected subcutaneously. After 10 days, the plugs were removed with some surrounding tissue, fixed in 10% formalin, and paraffin-embedded. Sections were deparaffinized, and stained with hematoxylin and eosin dyes. In the most positive regions, stained cells were counted by a blinded observer. In each treatment group there were 5-6 mice, and the experiment was performed twice. Images from the sections were captured using a 10× objective of an Olympus microscope.

[3] = rats, intravenous and intramuscular administration; cited from earlier work
[4] = tested on: B16F10 melanoma cells; assay: Tumor growth in vivo on CAM; set-up: species or system murine; settings: 5 μg daily, 7 days
Procedure: B16F10 melanoma cells (10^6 cells/[…]) in Matrigel were added directly onto the CAM of the 7-days-old embryo (embryos were prepared as described hereinabove). AS101 and SAS (5 μg) were added daily. After a 7-days incubation, with treatment performed each day (PBS, AS101 or SAS), tumors were excised and weighed. Formalin-fixed tumor tissues were paraffin embedded, sectioned at 10 μm, and stained with hematoxylin and eosin (H&E) for examination of tumor cell proliferation and vessel density.

[5] = tested on: West Nile Virus (WNV); assay: West Nile Virus (WNV) cytopathic effect assay; format: cell-based; settings: Vero cells
Procedure: Attached cells were washed with PBS without Ca^+2/Mg^+2. 100 μl of 0.2% crystal violet in 20% methanol was thereafter added and the cells were incubated for 10 minutes at room temperature. At the end of incubation time, cells were washed twice with double-distilled water and 100 μl of 10% SDS was added. Dye bound to the cell is released by SDS and the absorption by the dye is measured by colorimetry at 570 nm. The amount of stained cells is then considered to be proportional to the measured absorption by the dye
Vero cells were seeded at the density of 2×10^4 cells/well in 96-well plates, 20 hours before infection. The cells were treated with PBS or with various concentrations of AS101 before (1 hour or 5-10 minutes), or after (1 hour or 24 hours) virus inoculation. WNV at MOI (multiplicity of infection) of 0.005 PFU (plaque forming units) per cell was added to the cells and allowed undergo absorption for 1 hour at 37° C. The medium was removed and the cells were washed twice with PBS and overlaid with fresh medium. Cells were then incubated at 37° C. with 5% CO2 for 3-5 days. The development of a cytopathic effect was monitored by light microscopy.

[6] = tested on: U937 cells; assay: Fluorescence-based flow cytometry analysis of cell death; set-up: species or system human
Source text: Fluorescence-based flow cytometry was used to measure the effect of tellurium-containing compounds on chemotherapy-induced cell death. Accumulation of cells in the sub-G1 fraction, increased proportion of annexin V-positive and propidium iodide-positive cells and increased caspase activity were each used as indicators of increased cell death, using standard procedures.

[7] = tested on: HL-60 cells; assay: AML chemotherapy resistance assay (XTT cell viability), HL-60; format: cell-based, human
Procedure: Cell viability was determined using a cell proliferation kit (Roche), which colors viable cells using the tetrazolium salt XTT.
2×10^4 per 200 μl cells were seeded in 96-microwell flat bottom plates. After 24 hours, the tested compound(s) (e.g., AS101, ARA-C, DTNB, anti-VLA-4 antibody) was added, and the cells were incubated overnight with the tested compound(s). The XTT solution was then added and the cells were incubated for 4 hours at 37° C. Cell viability was than evaluated by measuring absorbance at 450 nm using a Microplate Spectrophotometer (Spectra MAX Plus, Molecular Devices).

[8] = tested on: West Nile Virus (WNV); assay: WNV yield assay; format: cell-based; settings: Vero cells, 5 μg/ml 1 hour before inoculation
Procedure: Vero cells were seeded as described above in 96-well plates. Cells were treated with AS101 and infected with WNV at MOI of 5 PFU/cell. The cells were washed six times with PBS, and fresh medium was added. The virus titer in harvested culture supernatants was determined by a microtitration assay as follows [Colley et al., in Colgan et al., Current Protocols in Immunology, John Wiley & Sons, New York, N.Y., 2003]: 10-fold serial dilutions of supernatants were used to infect Vero cells in 96-well plates. […] Viral titers (expressed as log 10 of TCID50/ml) were calculated according to the Spearman-Karber method [Hierholzer and Killington, in Mahy and Kangro, Virology Methods Manual, Academic Press, San Diego, Calif., 1996].

[9] = biological target: T1, VLA-4 (Homo sapiens, UniProt P13612); assay: Western blot analysis of VLA-4 thiols; format: cell-based; settings: U937 cultured on fibronectin
T1 construct: free thiols are present on the integrin VLA-4 in leukemic cells; endogenous in cells; host or cells: U937 leukemic cells
T1 sequence (P13612 34-1032): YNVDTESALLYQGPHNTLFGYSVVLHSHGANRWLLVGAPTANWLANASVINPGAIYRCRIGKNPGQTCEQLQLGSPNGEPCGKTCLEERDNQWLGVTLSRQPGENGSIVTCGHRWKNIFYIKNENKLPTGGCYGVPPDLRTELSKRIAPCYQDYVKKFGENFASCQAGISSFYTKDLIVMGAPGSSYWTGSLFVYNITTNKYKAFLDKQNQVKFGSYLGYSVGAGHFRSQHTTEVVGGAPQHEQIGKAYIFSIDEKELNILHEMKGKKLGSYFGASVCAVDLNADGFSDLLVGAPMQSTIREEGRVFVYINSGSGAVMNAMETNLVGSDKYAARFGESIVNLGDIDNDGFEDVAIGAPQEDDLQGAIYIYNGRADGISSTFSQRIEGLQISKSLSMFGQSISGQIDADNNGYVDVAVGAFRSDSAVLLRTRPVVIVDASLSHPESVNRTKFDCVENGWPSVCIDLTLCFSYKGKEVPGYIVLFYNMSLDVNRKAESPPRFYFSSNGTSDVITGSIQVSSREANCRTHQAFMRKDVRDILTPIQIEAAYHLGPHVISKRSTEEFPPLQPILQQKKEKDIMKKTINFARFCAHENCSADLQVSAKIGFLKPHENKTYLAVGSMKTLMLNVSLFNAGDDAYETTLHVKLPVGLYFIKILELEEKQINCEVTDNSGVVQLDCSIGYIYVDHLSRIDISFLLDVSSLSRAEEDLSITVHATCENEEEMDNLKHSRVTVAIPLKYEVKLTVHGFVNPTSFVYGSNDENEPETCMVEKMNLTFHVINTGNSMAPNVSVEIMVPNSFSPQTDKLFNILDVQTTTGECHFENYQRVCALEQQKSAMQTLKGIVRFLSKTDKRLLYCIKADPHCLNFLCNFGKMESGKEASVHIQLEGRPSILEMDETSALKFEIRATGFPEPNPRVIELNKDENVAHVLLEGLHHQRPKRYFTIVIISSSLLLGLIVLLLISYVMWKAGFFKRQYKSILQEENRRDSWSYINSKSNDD
T1 sequence (P05556 21-798 partner): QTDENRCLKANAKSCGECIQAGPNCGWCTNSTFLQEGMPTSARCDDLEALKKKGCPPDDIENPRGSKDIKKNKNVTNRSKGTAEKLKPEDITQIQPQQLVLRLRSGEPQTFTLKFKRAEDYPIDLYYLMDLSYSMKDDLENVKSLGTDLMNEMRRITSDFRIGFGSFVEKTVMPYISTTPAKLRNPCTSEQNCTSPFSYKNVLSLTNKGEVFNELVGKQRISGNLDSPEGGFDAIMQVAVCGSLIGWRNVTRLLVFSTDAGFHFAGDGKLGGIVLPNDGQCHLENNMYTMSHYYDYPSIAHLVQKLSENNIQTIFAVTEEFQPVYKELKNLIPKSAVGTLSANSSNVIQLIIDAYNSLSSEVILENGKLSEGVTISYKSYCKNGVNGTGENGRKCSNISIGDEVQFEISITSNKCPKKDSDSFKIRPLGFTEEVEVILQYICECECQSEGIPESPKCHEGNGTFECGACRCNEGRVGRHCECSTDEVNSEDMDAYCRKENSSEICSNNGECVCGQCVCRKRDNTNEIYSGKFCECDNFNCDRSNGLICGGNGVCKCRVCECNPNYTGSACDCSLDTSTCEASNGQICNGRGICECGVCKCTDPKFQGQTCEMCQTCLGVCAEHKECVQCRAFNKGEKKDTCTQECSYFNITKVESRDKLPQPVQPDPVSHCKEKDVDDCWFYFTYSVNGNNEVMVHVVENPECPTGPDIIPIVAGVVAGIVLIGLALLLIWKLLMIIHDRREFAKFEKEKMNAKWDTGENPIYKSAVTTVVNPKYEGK
Procedure: In order to confirm that free thiols are present on the integrin VLA-4 in leukemic cells, and that these are blocked by AS101, U937 leukemic cells cultured on fibronectin or BSA were treated with BMCC (1-biotinamido-4-(4′-[maleimidoethylcyclohexane]-carboxamido)butane), a thiol blocker linked to biotin. Some cultures were treated with AS101. The α and β chains of the VLA-4 (α4β1 integrin) were then immunoprecipitated from the treated cells using either anti-α4 or anti-β1 antibodies and blotted with anti-biotin antibody. The presence of free thiols was indicated by bands observed by anti-biotin blotting. The presence of α4 and β1 chains was determined by blotting with anti-α4 and anti-β1 antibodies.

[10] = U937 on BSA, AS101 combined with ARA-C
[11] = U937 on fibronectin, AS101 combined with ARA-C
[12] = U937 on fibronectin, agent alone
[13] = HL-60, fibronectin-coated plates, 0.5 or 1 μg/ml AS101

For `Cl[TeH]1(Cl)(Cl)OCCO1` [AS101, ammonium trichloro(dioxyethylene-O,O′)tellurate], which “expression of Bcl2” value ([1]; U937 on BSA) is on record?
Its value is “no effect”.

And the “expression of Bcl2” value ([1]; U937 on fibronectin)?
Its value is “did not decrease expression of Bcl2 in cells plated on fibronectin (FN) unless AS101 was added”.

What about the “endothelial cell invasion and migration into Matrigel plug (angiogenesis)” value [2] of the same compound?
The value was “inhibit endothelial cell invasion and migration”.

What about the “LD50 relative to the immunologically effective dose” value [3] of the same compound?
Its value is 500-1000 folds.

What about the “tumor growth and weight on chorioallantoic membrane” value [4] of the same compound?
Its value is “reduced tumor growth and weight”.

What about the WNV cytopathic effect ([5]; 2.5 μg/ml added 5-10 minutes before inoculation) of the same compound?
Its WNV cytopathic effect is “no cytopathic effect is observed”.

What about the “viability of WNV-infected cells (crystal violet)” value ([5]; 72 hours after infection) of the same compound?
The value was “dose-dependent protective effect”.

What about the WNV cytopathic effect ([5]; added 1 hour or 24 hours after inoculation, data not shown) of the same compound?
Its WNV cytopathic effect is “did not exhibit such an inhibitory effect”.

What about the “caspase-3 activity, ARA-C and AS101 in combination vs ARA-C alone” value ([6]; U937 on BSA) of the same compound?
Its value is “the same degrees of caspase-3 activity”.

And the “percentage of annexin V-positive and propidium iodide-positive cells” value [6, 10]?
Its value is “only slightly above the percentage obtained with ARA-C alone”.

What about the “percentage of cells in the sub-G1 fraction” value [6, 10] of the same compound?
The value was “did not provide significantly different results than ARA-C alone”.

And the “percentage of annexin V-positive and propidium iodide-positive cells” value [6, 11]?
The value was “increased the percentage of annexin V-positive and propidium iodide-positive cells considerably”.

And the “percentage of cells in the sub-G1 fraction” value [6, 11]?
Its value is “over 80%”.

What about the “percentage of cells with high caspase-3 activity” value [6, 11] of the same compound?
The value was “high percentage of cells with increased caspase-3 activity”.

And the “percentage of annexin V-positive and propidium iodide-positive cells” value [6, 12]?
The value was “no effect alone”.

And the “percentage of cells in the sub-G1 fraction” value [6, 12]?
Its value is “no effect alone”.

And the “percentage of cells with high caspase-3 activity” value [6, 12]?
The value was “little or no effect”.

And the “sensitization to daunorubicin-induced cell death” value ([7]; HL-60, BSA-coated or VCAM-1-coated plates)?
Its value is “no visible effect”.

What about the “sensitization to ARA-C-induced cell death” value [7, 13] of the same compound?
Its value is “sensitized HL-60 cells to ARA-C-induced cell death on fibronectin-coated plates”.

What about the “sensitization to daunorubicin-induced cell death” value [7, 13] of the same compound?
Its value is “sensitized HL-60 cells to daunorubicin-induced cell death on fibronectin-coated plates in a dose-dependent manner”.

What about the “decrease in virus yield” value ([8]; 24 hours post-infection) of the same compound?
Its value is 1 log.

And the “decrease in virus yield” value ([8]; 36 hours post-infection)?
Its value is 2 log.

And the “free thiols on the α chain of VLA-4 (BMCC labelling)” value [9]?
The value was “eliminated these free thiols”.

Which “endothelial cell invasion and migration into Matrigel plug (angiogenesis)” value [2] does the source give for `O=C1O[Te]23OC(=O)C(O2)C2O[Te]4(OC(=O)C(O4)C1O3)OC2=O` [SAS, [TeO4(COCH)2]2] here?
The value was “inhibit endothelial cell invasion and migration”.

What about the “tumor growth and weight on chorioallantoic membrane” value [4] of the same compound?
The value was “reduced tumor growth and weight”.

Reference: patent publication US20100297256A1, “METHODS AND COMPOSITIONS FOR INHIBITING INTEGRINS USING TELLURIUM-CONTAINING COMPOUNDS” (priority 2007, published 2010)
